Measurements as given in patent publication EP1137645B1, “ALPHA-METHYLBENZYL-CONTAINING THIOUREA INHIBITORS OF HERPES VIRUSES CONTAINING A […] GROUP” (Wyeth, priority 1998, dated 2000).
In brackets after ≈: the same amount, converted by molar mass. Like-named read-outs stand apart in the source and are kept apart here.

What was measured:
HSV- I = assay: HSV antiviral (ELISA) assay; format: cell-based; details: read-out: IC50 (ug/ml) HSV
Method in brief: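 Vero cells in DMEM with 2% FBS treated with compound 30 min before HSV-1 infection (MOI 0.006), then incubated ~24 h at 37°C. Viral replication measured by ELISA against glycoprotein D with β-galactosidase-linked secondary and fluorogenic substrate (ex 365/em 450 nm); IC50 relative to untreated fluorescence.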

[1] = tested on: HCMV recombinant mutant virus whose genome contains the prokaryotic beta-glucuronidase gene; assay: microbe, parasite or virus in culture; format: cell-based, human cytomegalovirus; details: for IC50: Human betaherpesvirus 5, Fibroblast
Method in brief: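 Human foreskin fibroblasts infected with HCMV recombinant carrying beta-glucuronidase under a viral promoter (e.g. RV145) in presence of compound. At 96 h post-infection, lysates assayed for beta-glucuronidase by colorimetric or fluorogenic substrate as replication readout; IC50 estimated from varying compound amounts.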

VZV strain Ellen = assay: VZV antiviral (ELISA) assay; format: cell-based
Method in brief: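 HFF cells infected with VZV Ellen at multiplicity below 0.1 overnight, then mixed infected/uninfected cells seeded with compound in DMEM/2% FBS and incubated three days at 37°C, 5% CO2.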

[2] = read-out: IC50 ug/ml HCMV, HCMV, human foreskin fibroblasts
[3] = Human alphaherpesvirus 3, HFF, read-out: % inhibition 10 ug/ml VZV
[4] = Human alphaherpesvirus 3, HFF, read-out: IC50 (ug/ml) VZV
[5] = Human alphaherpesvirus 3, read-out: % inhibition 10 ug/ml VZV, 10 ug/ml, VZV strain Ellen, HFF cells, ELISA
[6] = Human alphaherpesvirus 3, VZV strain Ellen, HFF cells, ELISA, read-out: IC50 (ug/ml) VZV
[7] = Human alphaherpesvirus 3, HFF, read-out: IC50 (ug/ml) VZV, VZV strain Ellen, HFF cells, ELISA

SMILES | IC50 (HSV- I; HSV- I, Vero cells, ELISA) | IC50 [1, 2] | inhibition at 10 µg/mL (VZV strain Ellen; [3]) | IC50 (VZV strain Ellen; [4]) | IC50 ([1]; read-out: IC50 ug/ml HCMV) | inhibition at 10 µg/mL (VZV strain Ellen; [5]) | IC50 (VZV strain Ellen; [6]) | IC50 (HSV- I; Vero) | IC50 (VZV strain Ellen; [7]) | IC50 ug/ml HCMV ([1]; HCMV, human foreskin fibroblasts)
O=C(Nc1ccc(NC(=S)Nc2ccc(F)c(Cl)c2)cc1)c1ccccc1F [Example 922, N-{4-[3-(3-Chloro-4-fluoro-phenyl)-thioureido]-phenyl}-2-fluoro-benzamide] | 1 µg/mL (≈ 2.39 µM) | > 10 µg/mL | 40% | > 10 µg/mL | – | – | – | – | – | –
O=C(Nc1ccc(NC(=S)Nc2cc(Cl)ccc2Cl)cc1)c1ccccc1F [Example 931, N-{4-[3-(2,5-Dichloro-phenyl)-thioureido]-phenyl}-2-fluoro-benzamide] | 4 µg/mL (≈ 9.21 µM) | > 10 µg/mL | 51% | > 10 µg/mL | – | – | – | – | – | –
O=C(Nc1ccc(NC(=S)Nc2cc(Cl)cc(Cl)c2)cc1)c1ccccc1F [Example 934, N-{4-[3-(3,5-Dichloro-phenyl)-thioureido]-phenyl}-2-fluoro-benzamide] | > 10 µg/mL | > 10 µg/mL | 18% | > 10 µg/mL | – | – | – | – | – | –
O=C(Nc1ccc(NC(=S)Nc2cc(Cl)c(Cl)c(Cl)c2)cc1)c1ccccc1F [Example 937, 2-Fluoro-N-{4-[3-(3,4,5-trichloro-phenyl)-thioureido]-phenyl}-benzamide] | 0.7 µg/mL (≈ 1.49 µM) | – | – | – | 2 µg/mL (≈ 4.27 µM) | 25% | > 10 µg/mL | – | – | –
O=C(Nc1ccc(NC(=S)Nc2ccccc2Cl)cc1)c1ccccc1F [Example 948, N-{4-[3-(2-Chloro-phenyl)-thioureido]-phenyl}-2-fluoro-benzamide] | 6 µg/mL (≈ 15 µM) | 4 µg/mL (≈ 10 µM) | 4% | > 10 µg/mL | – | – | – | – | – | –
COC(=O)c1cccc(NC(=S)Nc2ccc(NC(=O)c3ccccc3F)cc2)c1 [Example 950, 3-{3-[4-(2-Fluoro-benzoylamino)-phenyl]-thioureido}-benzoic acid methyl ester] | 8 µg/mL (≈ 18.9 µM) | – | – | – | > 10 µg/mL | – | > 10 µg/mL | – | – | –
NC(=O)c1cccc(NC(=S)Nc2ccc(NC(=O)c3ccccc3F)cc2)c1 [Example 952, N-[4-[[[[3-(Aminocarbonyl)phenyl]amino]thioxomethyl]amino]phenyl]-2-fluoro-benzamide] | > 10 µg/mL | – | – | – | > 10 µg/mL | 22% | > 10 µg/mL | – | – | –
O=C(Nc1ccc(NC(=S)Nc2cccc([N+](=O)[O-])c2)cc1)c1ccccc1F [Example 959, 2-Fluoro-N-{4-[3-(3-nitro-phenyl)-thioureido]-phenyl}-benzamide] | 0.7 µg/mL (≈ 1.71 µM) | – | – | – | > 10 µg/mL | 33% | > 10 µg/mL | – | – | –
O=C(Nc1ccc(NC(=S)Nc2cccc(OC(F)(F)F)c2)cc1)c1ccccc1F [Example 961, 2-Fluoro-N-{4-[3-(3-trifluoromethoxy-phenyl)-thioureido]-phenyl}-benzamide] | > 10 µg/mL | – | – | – | > 10 µg/mL | 53% | > 10 µg/mL | – | – | –
O=C(Nc1ccc(NC(=S)Nc2cccc(F)c2)cc1)c1ccccc1F [Example 962, 2-Fluoro-N-{4-[3-(3-fluoro-phenyl)-thioureido]-phenyl}-benzamide] | > 10 µg/mL | – | – | – | > 10 µg/mL | 10% | > 10 µg/mL | – | – | –
O=C(O)c1cccc(NC(=S)Nc2ccc(NC(=O)c3ccccc3F)cc2)c1 [Example 963, 3-{3-[4-(2-Fluoro-benzoylamino)-phenyl]-thioureido}-benzoic acid] | > 10 µg/mL | – | – | – | > 10 µg/mL | 30% | > 10 µg/mL | – | – | –
O=C(O)c1cccc(NC(=S)Nc2ccc(NC(=O)c3ccco3)cc2)c1 [Example 964, 3-(3-{4-[(Furan-2-carbonyl)-amino]-phenyl}-thioureido)-benzoic acid] | > 10 µg/mL | – | – | – | > 10 µg/mL | 0% | > 10 µg/mL | – | – | –
CC(=O)c1cccc(NC(=S)Nc2ccc(NC(=O)c3ccccc3F)cc2)c1 [Example 965, N-{4-[3-(3-Acetyl-phenyl)-thioureido]-pbenyl}-2-fluoro-benzamide] | 5 µg/mL (≈ 12.3 µM) | > 10 µg/mL | 12% | > 10 µg/mL | – | – | – | – | – | –
CCCCNS(=O)(=O)c1cccc(NC(=S)Nc2ccc(NC(=O)c3ccccc3F)cc2)c1 [Example 966, N-{4-[3-(3-Butylsulfamoyl-phenyl)-thioureido]-phenyl}-2-fluoro-benzamide] | 7 µg/mL (≈ 14 µM) | 2.5 µg/mL (≈ 4.99 µM) | 95% | 8 µg/mL (≈ 16 µM) | – | – | – | – | – | –
O=C(Nc1ccc(NC(=S)Nc2cccc(S(=O)(=O)CCO)c2)cc1)c1ccccc1F [Example 969, 2-Fluoro-N-(4-{3-[3-(2-hydroxy-ethanesulfonyl)-phenyl]-thioureido}-phenyl)-benzamide] | > 10 µg/mL | > 10 µg/mL | 19% | > 10 µg/mL | – | – | – | – | – | –
CC(NC(=S)Nc1ccc(NC(=O)c2ccccc2C(F)(F)F)cc1)c1cc2ccccc2o1 (centres unmarked) [Example 974, N-{4-[3-(1-Benzofuran-2-yl-ethyl)-thioureido]-phenyl}-2-trifluoromethyl-benzamide] | – | > 10 µg/mL | – | – | – | – | – | > 10 µg/mL | > 7.5 µg/mL | –
CC(NC(=S)Nc1ccc(C(=O)Nc2ccc(F)cc2)cc1)c1ccc(F)cc1 (centres unmarked) [Example 975, N-(4-Fluoro-phenyl)-4-{3-[1-(4-fluoro-phenyl)-ethyl]-thioureido}-benzamide] | > 10 µg/mL | – | – | – | > 10 µg/mL | – | 0.87 µg/mL (≈ 2.11 µM) | – | – | –
CC(NC(=S)Nc1ccc(NC(=O)c2nccc3ccccc23)cc1)c1ccc(F)cc1 (centres unmarked) [Example 976, Isoquinoline-1-carboxylic acid (4-{3-[1-(4-fluoro-phenyl)-ethyl]-thioureido}-phenyl)-amide] | – | – | – | – | – | – | – | > 10 µg/mL | 0.04 µg/mL (≈ 0.09 µM) | >10 µg/mL
CC(NC(=S)Nc1ccc(NC(=O)c2nccc3ccccc23)cc1)c1cc2ccccc2o1 (centres unmarked) [Example 977, Isoquinoline-1-carboxylic acid {4-[3-(1-benzofuran-2-yl-ethyl)-thioureido]-phenyl}-amide] | – | > 10 µg/mL | – | – | – | – | – | > 10 µg/mL | 0.05 µg/mL (≈ 0.107 µM) | –
CC(NC(=S)Nc1ccc(NC(=O)c2nccc3ccccc23)cc1)c1ccc(Br)cc1 (centres unmarked) [Example 978, Isoquinoline-1-carboxylic acid (4-{3-[1-(4-bromo-phenyl)-ethyl]-thioureido}-phenyl)-amide] | – | 7.8 µg/mL (≈ 15.4 µM) | – | – | – | – | – | > 10 µg/mL | 0.04 µg/mL (≈ 0.0791 µM) | –
CC(NC(=S)Nc1ccc(NC(=O)c2nccc3ccccc23)cc1)c1ccc(C#N)cc1 (centres unmarked) [Example 979, Isoquinoline-1-carboxylic acid (4-{3-[1-(4-cyano-phenyl)-ethyl]-thioureido}-phenyl)-amide] | – | 3.7 µg/mL (≈ 8.19 µM) | – | – | – | – | – | > 10 µg/mL | 0.13 µg/mL (≈ 0.288 µM) | –
CC(NC(=S)Nc1ccc(NC(=O)c2cc3ccccc3o2)cc1)c1ccc(F)cc1 (centres unmarked) [Example 980, Benzofuran-2-carboxylic acid (4-{3-[1-(4-fluoro-phenyl)-ethyl]-thioureido}-phenyl)-amide] | > 10 µg/mL | > 10 µg/mL | – | 0.15 µg/mL (≈ 0.346 µM) | – | – | – | – | – | –
CC(NC(=S)Nc1ccc(NC(=O)c2cc3ccccc3o2)cc1)c1cc2ccccc2o1 (centres unmarked) [Example 981, Benzofuran-2-carboxylic acid {4-[3-(1-benzofuran-2-yl-ethyl)-thioureido]-phenyl}-amide] | > 10 µg/mL | > 10 µg/mL | – | 0.2 µg/mL (≈ 0.439 µM) | – | – | – | – | – | –
CC(NC(=S)Nc1ccc(NC(=O)c2cc3ccccc3o2)cc1)c1ccc(Br)cc1 (centres unmarked) [Example 982, Benzofuran-2-carboxylic acid (4-{3-[1-(4-bromo-phenyl)-ethyl]-thioureido}-phenyl)-amide] | > 10 µg/mL | 1.3 µg/mL (≈ 2.63 µM) | – | 0.1 µg/mL (≈ 0.202 µM) | – | – | – | – | – | –
CC(NC(=S)Nc1ccc(NC(=O)c2cc3ccccc3o2)cc1)c1ccc(C#N)cc1 (centres unmarked) [Example 983, Benzofuran-2-carboxylic acid (4-{3-[1-(4-cyano-phenyl)-ethyl]-thioureido}-phenyl)-amide] | > 10 µg/mL | 1.1 µg/mL (≈ 2.5 µM) | – | 0.6 µg/mL (≈ 1.36 µM) | – | – | – | – | – | –
